Like-named read-outs stand apart in the source and are kept apart here. Square brackets hold non-standard residues; d marks the D form. Ends that are not written are not given here. AEEA = NCCOCCOCC(=O)O
T1: human CCK-B receptor (human, UniProt P32239 1-447)
T1 sequence (looked up): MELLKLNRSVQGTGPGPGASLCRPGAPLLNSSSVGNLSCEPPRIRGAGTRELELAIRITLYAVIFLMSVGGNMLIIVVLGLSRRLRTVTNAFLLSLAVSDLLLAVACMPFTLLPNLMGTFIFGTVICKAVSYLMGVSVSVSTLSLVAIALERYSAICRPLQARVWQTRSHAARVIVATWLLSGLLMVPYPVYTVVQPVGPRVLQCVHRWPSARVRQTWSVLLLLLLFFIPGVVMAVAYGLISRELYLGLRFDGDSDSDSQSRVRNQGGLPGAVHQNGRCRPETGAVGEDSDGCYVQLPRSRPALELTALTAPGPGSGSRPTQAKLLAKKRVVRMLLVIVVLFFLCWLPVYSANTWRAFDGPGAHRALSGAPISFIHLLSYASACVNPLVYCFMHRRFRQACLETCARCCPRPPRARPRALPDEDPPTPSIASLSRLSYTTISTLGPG


What was measured:
db/db mice = assay: Three weeks in vivo db/db mouse study
Experimental: Treatment Db/db mice were stratified to various treatment groups according to HbA1c levels. Mice were treated once daily with subcutaneous (SC) injections for a total of 21 days. Injection volume was 5 ml/kg. During the study body weights (BW) were recorded daily and used to administer the body weight-corrected doses of peptide. OGTT On day 16, an oral glucose tolerance test was performed in the animals. Blood glucose was measured before glucose (at t=0, baseline) and after glucose administration up to 2 hrs. Termination At termination the blood glucose levels were measured, and blood samples were analyzed for HbA1c levels. Measurements Whole blood glucose concentration (mM) was determined by the immobilized glucose oxidase method (Elite Autoanalyser, Bayer, Denmark). Blood samples were analyzed for HbA1c using the Cobas c111 analyzer (Roche Diagnostics, Mannheim, Germany).

[1] = Pharmacokinetics in mice after single subcutaneous dose; type: in vivo, C57BI L/6J mice; details: C57BL/6J, mouse, sc
Experimental: At each time point, samples from two mice were taken. […] Plasma samples were analyzed after solid phase extraction (SPE) by liquid chromatography mass spectrometry (LC-MS/MS).

human CCK-B receptor = biological target: T1, human CCK-B receptor; assay: cell-based or functional assay
human GLP-1 receptor = human GLP-1 receptor (human, UniProt P43220 24-463); assay: cell-based or functional assay
[2] = SC 100 nmol/kg once daily, 21 days treatment

human GLP-1 receptor, sequence (P43220 24-463): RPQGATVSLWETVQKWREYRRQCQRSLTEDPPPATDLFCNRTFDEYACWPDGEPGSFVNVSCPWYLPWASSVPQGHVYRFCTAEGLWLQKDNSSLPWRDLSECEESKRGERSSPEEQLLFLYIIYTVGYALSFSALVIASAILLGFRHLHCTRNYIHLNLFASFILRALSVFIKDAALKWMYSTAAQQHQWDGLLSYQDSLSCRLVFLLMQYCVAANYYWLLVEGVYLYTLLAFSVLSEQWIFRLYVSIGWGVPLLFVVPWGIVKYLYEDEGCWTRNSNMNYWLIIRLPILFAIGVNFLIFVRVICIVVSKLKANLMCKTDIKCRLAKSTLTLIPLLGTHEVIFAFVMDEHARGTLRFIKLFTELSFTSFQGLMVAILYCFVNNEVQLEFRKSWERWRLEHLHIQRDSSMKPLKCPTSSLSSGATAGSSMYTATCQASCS

| Molecule | half-life ([1]; in vivo, 100 nmol/kg) | EC50, p-ERK in HEK293 cells stably expressing human CCK-B R (human CCK-B receptor) | EC50, cAMP induction in HEK293 cells expressing human GLP-1 R (human GLP-1 receptor) | other results |
| --- | --- | --- | --- | --- |
| CC[C@H](C)[C@H](NC(=O)[C@H](Cc1ccccc1)NC(=O)[C@H](CC(C)C)NC(=O)[C@H](CCCNC(=N)N)NC(=O)[C@@H](NC(=O)[C@H](C)NC(=O)[C@H](CCC(=O)O)NC(=O)[C@H](CCC(=O)O)NC(=O)[C@H](CCC(=O)O)NC(=O)[C@H](CC(C)C)NC(=O)[C@H](Cc1ccc(O)cc1)NC(=O)[C@H](CCCCN)NC(=O)[C@H](CO)NC(=O)[C@H](CC(C)C)NC(=O)[C@H](CCC(=O)O)NC(=O)[C@H](CO)NC(=O)[C@@H](NC(=O)[C@H](Cc1ccccc1)NC(=O)[C@@H](NC(=O)CNC(=O)[C@H](CCC(=O)O)NC(=O)CNC(=O)[C@@H](N)Cc1c[nH]cn1)[C@@H](C)O)[C@@H](C)O)C(C)C)C(=O)N[C@@H](CCC(=O)O)C(=O)N[C@@H](Cc1c[nH]c2ccccc12)C(=O)N[C@@H](CC(C)C)C(=O)N[C@@H](CCCCN)C(=O)N[C@@H](CC(=O)O)C(=O)N[C@@H](Cc1ccc(O)cc1)C(=O)NCC(=O)N[C@@H](Cc1c[nH]c2ccccc12)C(=O)N[C@@H](CC(C)C)C(=O)N[C@@H](CC(=O)O)C(=O)N[C@@H](Cc1ccccc1)C(N)=O [Compound 23] | 6.7 h | – | – | body weight gain (in words) (db/db mice; 3 week course of the study): lowered the body weight gain; Fasted BG level (mM) (db/db mice; SC 100 nmol/kg once daily, 16 days treatment): ++ ((++) indicates fasted BG between 6 and 8 mM); Delta-BW (g) (db/db mice; [2]): ++ ((++) indicates delta BW between 4 and 6 g); Delta-HbA1c (%) (db/db mice; [2]): +++ ((+++) indicates delta-HbA1c level below 0%); OGTT, AUC (mM*min) (db/db mice; SC 100 nmol/kg once daily, after 16 days of treatment): ++ ((++) indicates OGTT AUC between 1000 and 2000M*min); plasma levels of HbA1c (in words) (db/db mice; after 3 weeks treatment): lowered the plasma levels of HbA1c; fasting blood glucose levels (in words) (db/db mice; after 16 days treatment): lowered the fasting blood glucose levels; area under the glucose concentration curve (AUC) following an oral glucose challenge (in words) (db/db mice; day 16): lowered the area under the glucose concentration curve (AUC) |
| CC[C@H](C)[C@H](NC(=O)[C@H](Cc1ccccc1)NC(=O)[C@H](CC(C)C)NC(=O)[C@H](CCCNC(=N)N)NC(=O)[C@@H](NC(=O)[C@H](C)NC(=O)[C@H](CCC(=O)O)NC(=O)[C@H](CCC(=O)O)NC(=O)[C@H](CCC(=O)O)NC(=O)[C@H](CC(C)C)NC(=O)[C@H](Cc1ccc(O)cc1)NC(=O)[C@H](CCCCN)NC(=O)[C@H](CO)NC(=O)[C@H](CC(C)C)NC(=O)[C@H](CCC(=O)O)NC(=O)[C@H](CO)NC(=O)[C@@H](NC(=O)[C@H](Cc1ccccc1)NC(=O)[C@@H](NC(=O)CNC(=O)[C@H](CCC(=O)O)NC(=O)CNC(=O)[C@@H](N)Cc1c[nH]cn1)[C@@H](C)O)[C@@H](C)O)C(C)C)C(=O)N[C@@H](CCC(=O)O)C(=O)N[C@@H](Cc1ccccc1)C(=O)N[C@@H](CC(C)C)C(=O)N[C@@H](CCCCN)C(=O)N[C@@H](CC(=O)O)C(=O)NCCOCCOCC(=O)NCCOCCOCC(=O)N[C@@H](Cc1ccc(O)cc1)C(=O)NCC(=O)N[C@@H](Cc1c[nH]c2ccccc12)C(=O)N[C@@H](CC(C)C)C(=O)N[C@@H](CC(=O)O)C(=O)N[C@@H](Cc1ccccc1)C(N)=O [Compound 19] | 2.4 h | – | – | – |
| h[Leu15]Gastrin17 (from UniProt P01350 76-92) (peptide) | – | 2.89 nM | – | – |
| CCCCCCCCCCCCCCCC(=O)N[C@@H](CCC(=O)NCCCC[C@H](NC(=O)[C@H](CCC(=O)O)NC(=O)[C@@H](NC(=O)[C@H](Cc1ccccc1)NC(=O)[C@H](CC(C)C)NC(=O)[C@H](CCCNC(=N)N)NC(=O)[C@@H](NC(=O)[C@H](C)NC(=O)[C@H](CCC(=O)O)NC(=O)[C@H](CCC(=O)O)NC(=O)[C@H](CCC(=O)O)NC(=O)[C@H](CC(C)C)NC(=O)[C@H](Cc1ccc(O)cc1)NC(=O)[C@H](CCCCN)NC(=O)[C@H](CO)NC(=O)[C@H](CC(C)C)NC(=O)[C@H](CCC(=O)O)NC(=O)[C@H](CO)NC(=O)[C@@H](NC(=O)[C@H](Cc1ccccc1)NC(=O)[C@@H](NC(=O)CNC(=O)[C@H](CCC(=O)O)NC(=O)CNC(=O)[C@@H](N)Cc1c[nH]cn1)[C@@H](C)O)[C@@H](C)O)C(C)C)[C@@H](C)CC)C(=O)N[C@@H](CC(C)C)C(=O)N[C@@H](CCCCN)C(=O)NCCOCCOCC(=O)NCCOCCOCC(=O)N[C@@H](Cc1ccc(O)cc1)C(=O)NCC(=O)N[C@@H](Cc1c[nH]c2ccccc12)C(=O)N[C@@H](CC(C)C)C(=O)N[C@@H](CC(=O)O)C(=O)N[C@@H](Cc1ccccc1)C(N)=O)C(=O)O [Compound 7] | – | – | – | half-life ([1]; s.c. administration of 100 nmol/kg in mice, plasma, read-out: T1/2 (converted)): 6.2 h |
| CC[C@H](C)[C@H](NC(=O)[C@H](Cc1ccccc1)NC(=O)[C@H](CC(C)C)NC(=O)[C@H](CCCNC(=N)N)NC(=O)[C@@H](NC(=O)[C@H](C)NC(=O)[C@H](CCC(=O)O)NC(=O)[C@H](CCC(=O)O)NC(=O)[C@H](CCC(=O)O)NC(=O)[C@H](CC(C)C)NC(=O)[C@H](Cc1ccc(O)cc1)NC(=O)[C@H](CCCCN)NC(=O)[C@H](CO)NC(=O)[C@H](CC(C)C)NC(=O)[C@H](CCC(=O)O)NC(=O)[C@H](CO)NC(=O)[C@@H](NC(=O)[C@H](Cc1ccccc1)NC(=O)[C@@H](NC(=O)CNC(=O)[C@H](CCC(=O)O)NC(=O)CNC(=O)[C@@H](N)Cc1c[nH]cn1)[C@@H](C)O)[C@@H](C)O)C(C)C)C(=O)N[C@@H](CCC(=O)O)C(=O)N[C@@H](Cc1ccccc1)C(=O)N[C@@H](CC(C)C)C(=O)N[C@@H](CCCCN)C(=O)N[C@@H](CC(=O)O)C(=O)N[C@@H](Cc1ccc(O)cc1)C(=O)NCC(=O)N[C@@H](Cc1c[nH]c2ccccc12)C(=O)N[C@@H](CC(C)C)C(=O)N[C@@H](CC(=O)O)C(=O)N[C@@H](Cc1ccccc1)C(N)=O [Compound 12] | 5 h | – | – | – |
| H-HGEGTFTSELSKYLEEEAVRLFIEWLKNYGWLDF-NH2 [Compound 22] | – | – | – | half-life ([1]; in vivo, s.c. administration of 100 nmol/kg in mice, plasma, read-out: T1/2 (converted)): 8.2 h |
| HGEGTFTSELSKYLEEEAVRLFIEWLKNYGWLDF-NH2 [Compound 22] | – | 31 nM | 0.085 nM | – |
| HGEGTFTSDLSKQLEEEAVRLFIECLKNXXYGWLDF (not fully specified; C(PEG5K) at position 25; 8Ado at positions 29 and 30; C-terminal amide (-NH2)) [Compound 38] | – | 61 nM | 0.037 nM | – |
| HGEGTFTSELSKYLEEEAVRLFIEC(PEG20K)LK[AEEA][AEEA]YGWLDF-NH2 (not fully specified) [Compound 40] | – | 133 nM | 0.37 nM | – |
